Earlier results in US20160120797A1, “ANTI-ACNE COMPOSITION AND METHODS OF USE THEREOF” (priority 2014, published 2016).

For `O=C(O)Cc1ccccc1Nc1c(Cl)cccc1Cl` [Diclofenac sodium, 2-(2-(2,6-dichlorophenylamino)phenyl)acetic acid], the anti-bacterial activity (E. Coli) is given as “anti-bacterial activity” and the anti-bacterial activity (L. monocytogenes) is given as “anti-bacterial activity”.
